In ChEMBL document CHEMBL6103567, “A novel pyridine-2-one AMPK inhibitor: Discovery, mechanism, and in vivo evaluation in a hypoxic pulmonary arterial hypertension rat model” (Eur J Med Chem, 2025):

Legend:
[1] = Antiproliferative activity against human PASMC cells assessed as cell viability incubated for 48 hrs under hypoxia condition by CCK-8 assay; assay type: toxicity, cell-based
[2] = Induction of apoptosis in hypoxia-induced human PASMC cells assessed as necrotic cells at 5 uM incubated for 12 hrs by Annexin V/FITC staining based flow cytometry analysis (reference value: 0.68%); assay type: functional
[3] = Induction of apoptosis in hypoxia-induced human PASMC cells assessed as late apoptotic cells at 5 uM incubated for 12 hrs by Annexin V/FITC staining based flow cytometry analysis (reference value: 0.88%); assay type: functional
[4] = Induction of apoptosis in hypoxia-induced human PASMC cells assessed as early apoptotic cells at 5 uM incubated for 12 hrs by Annexin V/FITC staining based flow cytometry analysis (reference value: 10.17%); assay type: functional
[5] = Induction of apoptosis in hypoxia-induced human PASMC cells assessed as viable cells at 5 uM incubated for 12 hrs by Annexin V/FITC staining based flow cytometry analysis (reference value: 88.26%); assay type: functional; conditions: read-out: Activity

Question: With `c1cc(-c2cnn3cc(-c4ccc(OCCN5CCCCC5)cc4)cnc23)ccn1` [DORSOMORPHIN] as the compound, how does the IC50 [1] read?
Answer: The IC50 was 5.48 µM.

Question: What about the Activity [2] of the same compound?
Answer: The Activity was 1.56%.

Question: And the Activity [3]?
Answer: The Activity was 1.7%.

Question: What about the Activity [4] of the same compound?
Answer: The Activity was 7.31%.

Question: And the viability at 5 µM [5]?
Answer: Its viability at 5 µM is 89.4%.
